How the values were obtained:
[1] = type: physicochemical; settings: Table 1; for Size (nm): lipid nanoparticle of the ionizable lipid (ionizable lipid/phospholipid/PEG lipid/structural lipid 50/10/1.5/38.5 %) with mRNA; for Encapsulated percentage (%) / PDI: lipid nanoparticle of the ionizable lipid with mRNA
BALB/c mice = assay: Transfection efficiency: in vivo bioluminescence of luciferase mRNA encapsulated by different LNP; settings: for Average fluorescence intensity, Leg (intramuscular injection) / Average fluorescence intensity, Liver (tail vein injection): 10 μg/mice; for Total photons number, Leg: intramuscular injection
Method: All animals were kept in adaptive feeding for more than 7 days before experiments, free to uptake food and drink water during experimental period, illumination 12/12 h alternating light and dark, room temperature was 20-26° C., humidity was 40-70%.
Experimental method: female BALB/c mice, encapsulated luciferase mRNA with different LNP by four different administrations which included subcutaneous injection (under the armpit), tail vein injection, intraperitoneal injection, intramuscular injection (the tibialis anterior muscle of mouse hind leg); 3, 6, 24, 48 h after administration, applied in vivo fluorescence imaging system (brand: Bruker, model: XTREME) for bioluminescence detection, the specific steps were as follows: substrate preparation: took appropriate amount of substrate Luciferin (brand: Promega) and added saline to make a 10 mg/ml solution, avoided light, injected 100 μl solution into each mouse intraperitoneally. […] Put the anesthetized mouse into machine, set the bioluminescence setting and took the photos, captured the photograph and then adjusted the upper and lower values of photograph, then collected data on the concentrated distribution of fluorescence (e.g., fluorescence intensity, average photons number, and total photons number) and processed data. Statistical analysis: the in vivo imaging outcome were shown in the fluorescence intensity or average of total photons number of different animal in the same tested group, which were used to judge whether the fluorescence intensity or total photon number of luciferase mRNA encapsulated by different LNP were high or low.
The fluorescence intensity and total photons number reflects the transfection efficiency of LNP, the value is higher, referring to the efficiency of delivering encapsulated substance into cell by LNP is higher.

Row | Compound | Size (nm) [1] | Encapsulated percentage (%) [1] | PDI [1] | Average fluorescence intensity, Leg (intramuscular injection) (BALB/c mice; 3 h after administration) | Average fluorescence intensity, Liver (tail vein injection) (BALB/c mice; 3 h after administration) | Average fluorescence intensity, Leg (intramuscular injection) (BALB/c mice; 6 h after administration) | Average fluorescence intensity, Liver (tail vein injection) (BALB/c mice; 6 h after administration) | Average fluorescence intensity, Leg (intramuscular injection) (BALB/c mice; 24 h after administration) | Average fluorescence intensity, Liver (tail vein injection) (BALB/c mice; 24 h after administration) | Total photons number, Leg (BALB/c mice; 1 μg/ mice, 6 h) | Total photons number, Leg (BALB/c mice; 1 μg/ mice, 3 h) | Total photons number, Leg (BALB/c mice; 1 μg/ mice, 24 h) | Total photons number, Leg (BALB/c mice; 5 μg/mice, 3 h) | Total photons number, Leg (BALB/c mice; 5 μg/mice, 6 h) | Total photons number, Leg (BALB/c mice; 5 μg/mice, 24 h)
1 | CCCCCCCCCCCCCCCCN(CCO)CCCCCC(=O)OCCCCCCCCCCC [A1] | 127.7 nm | 88.79% | 0.090 | 61.3 | 20.4 | 80.6 | 27.80 | 38.9 | 15.9 | – | – | – | – | – | –
2 | CCCCCCCCC(CCCCCCCC)OC(=O)CCCCCCCN(CCO)CCCCCCCC(=O)OC(CCCCCCCC)CCCCCCCC [A2, reference compound] | 145.5 nm | 87.86% | 0.100 | 1146 | 5325.2 | 1208.2 | 5934.7 | 377.7 | 162.6 | – | – | – | – | – | –
3 | CCCCCCCCCCCOC(=O)CCCCCN(CCO)CCCCCC(=O)OCCCCCCCCCCC [A3, reference compound] | 140.6 nm | 81.47% | 0.120 | 60.3 | 12.1 | 69.8 | 11.9 | 35.9 | 13.5 | – | – | – | – | – | –
4 | CCCCCCCCCCCOC(=O)CCCCCN(CCCO)CCCCCCCC(=O)OC(CCCCCCCC)CCCCCCCC [A4, reference compound] | 131.1 nm | 79.24% | 0.110 | 1847.5 | 7962.6 | 1956.2 | 7745.9 | 1009.7 | 326.4 | – | – | – | – | – | –
5 | CCCCCCCCC(CCCCCCCC)OC(=O)CCCCCCCN(CCCO)CCCCCCCC(=O)OC(CCCCCCCC)CCCCCCCC [A5] | 135.0 nm | 90.11% | 0.090 | 675.7 | 2231.2 | 1566.4 | 3738.2 | 892.2 | 73.5 | – | – | – | – | – | –
6 | CCCCCCCCCCCOC(=O)CCCCCN(CCCO)CCCCCC(=O)OCCCCCCCCCCC [A6] | 171.5 nm | 87.09% | 0.190 | 60.3 | 11.9 | 40.9 | 9.0 | 19.1 | 12.2 | – | – | – | – | – | –
7 | CCCCC/C=C/C/C=C/CCCCCCCCN(CCO)CCCCCCCC(=O)OC(CCCCCCCC)CCCCCCCC [A8, reference compound] | 142.2 nm | 76.10% | 0.120 | 1111 | 6850.3 | 2161.8 | 10174.4 | 1294.9 | 220.8 | – | – | – | – | – | –
8 | CCCCC/C=C/C/C=C/CCCCCCCCN(CCO)CCCCCC(=O)OCCCCCCCCCCC [A9] | 129.4 nm | 93.35% | 0.120 | 461.4 | 198.9 | 432.0 | 252.7 | 178.3 | 14.6 | – | – | – | – | – | –
9 | CCCCC/C=C/C/C=C/CCCCCCCCN(CCO)CCCCCCCC(=O)OC(COCCCCCC)COCCCCCC [A10] | 121.6 nm | 82.65% | 0.104 | – | – | – | – | – | – | 3.17E+09 | – | – | – | – | –
10 | CCCCCCCCCCCOC(=O)CCCCCN(CCO)CCCCCCCC(=O)OC(COCCCCCC)COCCCCCC [A11] | – | – | – | – | – | – | – | – | – | 1.33E+09 | – | – | – | – | –
11 | CCCCC/C=C/C/C=C/CCCCCCCCN(CCCO)CCCCCC(=O)OCCCCCCCCCCC [A12] | 119.3 nm | 86.53% | 0.083 | – | – | – | – | – | – | 6.91E+08 | – | – | – | – | –
12 | CCCCCCCCC(CCCCCCCC)OC(=O)CCCCCCCN(CCO)CCCCCCCC(=O)OC(COCCCCCC)COCCCCCC [A13] | 96.87 nm | 95.51% | 0.146 | – | – | – | – | – | – | 3.66E+09 | – | – | – | – | –
13 | CCCCC/C=C/C/C=C/CCCCCCCCN(CCCO)CCCCCCCC(=O)OC(COCCCCCC)COCCCCCC [A15] | – | – | – | – | – | – | – | – | – | 8.78E+08 | – | – | – | – | –
14 | CCCCCCCCC(CCCCCCCC)OC(=O)CCCCCCCN(CCCO)CCCCCCCC(=O)OC(COCCCCCC)COCCCCCC [A17] | 109.5 nm | 92.99% | 0.1037 | – | – | – | – | – | – | – | – | – | – | – | –
15 | CCCCCCOCC(COCCCCCC)OC(=O)CCCCCCCN(CCCO)CCCCCCCC(=O)OC(COCCCCCC)COCCCCCC [A19] | 110.1 nm | 88.00% | 0.0923 | – | – | – | – | – | – | 4.77E+09 | 3.69E+09 | 7.33E+08 | – | – | –
16 | CCCCC/C=C/C/C=C/CCCCCCCCN(CCO)CCCCCCCC(=O)OCC(COCCCCCC)(COCCCCCC)COCCCCCC [A20] | 77.17 nm | 97.09% | 0.121 | – | – | – | – | – | – | – | – | – | 5.99E+08 | 5.65E+08 | 2.03E+08
17 | CCCCC/C=C/C/C=C/CCCCCCCCN(CCCO)CCCCCCCC(=O)OCC(COCCCCCC)(COCCCCCC)COCCCCCC [A21] | 78.3 nm | 97.20% | 0.098 | – | – | – | – | – | – | – | – | – | 9.07E+08 | 7.11E+08 | 1.62E+08
18 | CCCCCCCCCCCOC(=O)CCCCCN(CCCO)CCCCCCCC(=O)OCC(COCCCCCC)(COCCCCCC)COCCCCCC [A22] | 86.19 nm | 96.85% | 0.049 | – | – | – | – | – | – | – | – | – | 4.16E+09 | 5.74E+09 | 1.24E+09
19 | CCCCCCCCCCCOC(=O)CCCCCN(CCO)CCCCCCCC(=O)OCC(COCCCCCC)(COCCCCCC)COCCCCCC [A23] | 74.63 nm | 97.41% | 0.054 | – | – | – | – | – | – | – | – | – | 4.39E+09 | 2.68E+09 | 8.00E+08
20 | CCCCCCOCC(COCCCCCC)(COCCCCCC)COC(=O)CCCCCCCN(CCO)CCCCCCCC(=O)OCC(COCCCCCC)(COCCCCCC)COCCCCCC [A24] | 78.69 nm | 96.77% | – | – | – | – | – | – | – | – | – | – | 1.94E+08 | 1.56E+08 | 6.31E+07
21 | CCCCCCOCC(COCCCCCC)OC(=O)CCCCCCCN(CCCO)CCCCCCCCCCCC(=O)OC(COCC)COCC [A26] | 120.3 nm | 83.56% | 0.064 | – | – | – | – | – | – | – | – | – | – | – | –
22 | CCCCCCOCC(COCCCCCC)OC(=O)CCCCCCCN(CCCCCCCC(=O)OC(COCCCCCC)COCCCCCC)CCCNc1c(NCCCNc2c(NC)c(=O)c2=O)c(=O)c1=O [A29] | 126.4 nm | 89.98% | 0.05 | – | – | – | – | – | – | – | – | – | – | – | –
23 | CCCCCCOCC(COCCCCCC)OC(=O)CCCCCCCN(CCCCCCCC(=O)OC(COCCCCCC)COCCCCCC)CCCNc1c(NCCCNc2c(NCCCN(CCCCCCCC(=O)OC(COCCCCCC)COCCCCCC)CCCCCCCC(=O)OC(COCCCCCC)COCCCCCC)c(=O)c2=O)c(=O)c1=O [A30] | 110.1 nm | 98.14% | 0.28 | – | – | – | – | – | – | – | – | – | – | – | –
24 | CCCCCCCCOCC(COCCCCCCCC)OC(=O)CCCCCCCN(C)CCCNc1c(NCCCN(C)CCCCCCCC(=O)OC(COCCCCCCCC)COCCCCCCCC)c(=O)c1=O [A31] | – | – | – | – | – | – | – | – | – | 2.65E+08 | 1.58E+08 | 8.43E+07 | – | – | –
25 | CCCCCCOCC(COCCCCCC)OC(=O)CCCCCCCN(C)CCCNc1c(NCCCNc2c(NCCCN(C)CCCCCCCC(=O)OC(COCCCCCC)COCCCCCC)c(=O)c2=O)c(=O)c1=O [A32] | 128.7 nm | 94.19% | 0.07 | – | – | – | – | – | – | – | – | – | – | – | –
